Reference: patent US9096853B2, “Modified siRNA molecules incorporating 5-fluoro-2′-deoxyuridine residues to enhance cytotoxicity” (U.S. Department of Veterans Affairs, priority 2012, dated 2015)
d = 2'-deoxy (DNA); r = 2'-OH (RNA)

What was measured:
Type in all cases: cell-based, human
[1] = tested on: thymidylate synthase (TS) protein; assay: Immunoblot analysis of TS protein (free and ITC-bound), Odyssey quantitation; conditions: RKO cells, ssiRNA 10 nM, pre vs. 0 hr
[2] = tested on: thymidylate synthase (TS) protein; assay: as above; conditions: RKO cells, 48 hr
Experimental: FIGS. 1A-B illustrate the effect of FdU incorporation in ssiRNA on TS protein expression. RKO cells were transfected with TS6 ssiRNAs (1 nM) containing various 3′-overhangs. After 6 hr, the medium was replaced. After an additional 48 hr, cells were harvested and processed for immunoblot and qPCR analysis as described in the Materials and Methods section. (A) Representative blot from 4 experiments. (B) All qPCR values represent the mean±S.D. from at least 3 separate experiments performed in triplicate. The normalized amount of TS mRNA from mock-transfected cells (LF2000) was set to 1.0 and all other values compared against that value. ITC, inhibitory ternary complex;
Cells were plated at a density of 1.5×10^5 cells/well. On the following day, ssiRNAs were complexed with Lipofectamine 2000 (LF2000, Invitrogen) in serum-free RPMI-1640 medium and added to the plated cells. After 48 hr, cells were rinsed with PBS and scraped in cell lysis buffer (10 mM Tris pH7.4, 150 mM NaCl, 1 mM EDTA, 1% IGEPAL, 0.5% sodium deoxycholate, and 0.1% SDS) containing freshly added Protease Inhibitor Cocktail (Sigma; St. Louis, Mo.), 1 mM phenylmethylsulfonyl fluoride, and phosphatase inhibitors (Sigma). Lysates were sonicated and then centrifuged at 14,000 rpm for 30 min at 4° C. to remove debris. Cell lysates were stored at −80° C. for future use. For mRNA analysis, total RNA was extracted using Trizol (Invitrogen) and stored at −80° C. for future use.
(§1) Protein concentrations of cell lysates were determined using the DC Protein Assay (Bio-Rad; Hercules, Calif.). Equal amounts of protein (30 μg) from each cell lysate were resolved on SDS-PAGE using the method of Laemmli (Reference 19) and transferred onto 0.45 μm nitrocellulose membranes (Bio-Rad). Membranes were blocked and incubated overnight with primary antibodies at 4° C. The following antibodies were used in the experiments: anti-TS (Clone 4H4B1; Invitrogen), anti-TS (#5449; Cell Signaling; San Francisco, Calif.), anti-p21 Waf1/Cip1 (#2947; Cell Signaling), anti-p53 (#sc-126; Santa Cruz Biotechnology; Santa Cruz, Calif.), anti-PARP (#9542; Cell Signaling), anti-Fas (#4233; Cell Signaling), anti-phospho-histone H2A.X (Ser139) (#2577; Cell Signaling), anti-histone H2A.X (#7631; Cell Signaling), anti-phospho-ATM (pS1981; EPITOMICS Inc.; Burlingame, Calif.), anti-ATM (#A1106; Sigma), and anti-α-tubulin (EMD Biosciences; San Diego, Calif.). After multiple TBST washes (1×TBS, 0.1% Tween-20), membranes were incubated with corresponding horseradish peroxidase-conjugated secondary antibodies (Bio-Rad) for 1 hr at room temperature. Proteins were detected by the enhanced chemiluminescence method (SuperSignal West Pico substrate; Pierce; Rockford, Ill.). Quantitation of signal intensities was performed by densitometry on a Xerox scanner using NIH IMAGEJ software.
Immunoblots were prepared as described above. After incubation with anti-TS polyclonal antibody, membranes were blocked with the Odyssey blocking buffer and incubated with IRDye 800CW goat anti-rabbit antibody (LI-COR Biosciences; Lincoln, Nebr., USA) according to the manufacturer instructions. The fluorescent signal was detected and quantified using the Odyssey infrared imaging system (LI-COR).

[3] = tested on: p53, Fas, cleaved PARP, γH2AX, p-ATM; assay: Immunoblot of DNA damage and apoptosis signaling proteins, time course; conditions: RKO cells, ssiRNA 10 nM, 0-72 hr
Experimental: FIG. 5 illustrates time-dependent effects of FdU-containing ssiRNAs on protein expression. RKO cells were transfected with various TS6 ssiRNAs (10 nM). After 6 hr, the medium was replaced, and cells were harvested for immunoblot blot analysis at the following times: before39 transfection (pre) and 0, 24, 48, and 72 hr after transfection. Images shown are representative blots from at least 4 different experiments; and
as §1

GC3/TK− cells = assay: Cell proliferation (WST-1) in thymidine kinase-deficient GC3/TK− cells; conditions: 6 hr transfection, additional 5 days
Experimental: FIGS. 2A-B illustrate the effect of TK knockdown on the cytotoxicity of the FdU-modified ssiRNA. (A) RKO cells were transfected with 1 nM TK siRNA (lanes 3 and 4) or Mis-dU/dA (lane 5). After 6 hr, the medium was replaced with fresh medium. On the following day, cells were transfected with TS6-FdU/dA ssiRNA (1 nM) for 6 hr (lanes 2, 4, and 5) after which time, cells were harvested for immunoblot analysis. RKO cells were treated with 5-fluorouracil (5 nM) for 6 hr before harvesting (lane 6). (B) GC3/TK− cells were transfected with various concentrations of TS6-dU/dA or TS6-FdU/dA ssiRNA. After 6 hr, the medium was replaced and after an additional 5 days, cell proliferation was determined with the WST-1 assay;
The human colon cancer RKO cell line, originally obtained from ATCC, has been previously well-characterized and was maintained in RPMI-1640 (Invitrogen; Carlsbad, Calif.) with 10% (v/v) dialyzed fetal bovine serum at 37° C. in a humidified incubator with 5% CO2 (Reference 11). The thymidine kinase-deficient GC3/TK− cells were a gift from Dr. Janet Houghton (Reference 18). Cells were routinely authenticated by morphology and growth curve analysis. […]
RKO cells were plated in 96-well plates at a density of 800 cells/well. […] Cell proliferation/viability was quantified by the WST-1 assay (Roche; Indianapolis, Ind.).

TS6-dU/dA: unmodified TS-targeted ssiRNA, 5 dU on 3′-end of sense strand, 5 dA on 3′-end of antisense strand; SEQ ID NO: 3 and 4 (sense GGAUAUUGUCAGUCUUUAGGUUUUU; antisense CCUAAAGACUGACAAUAUCCAAAAA; sense: sugars from the 5' end r20 d5, backbone and T or U not given here; antisense: sugars from the 5' end r20 d5, backbone not given here)
TS protein levels immediately after transfection [1]: minimally affected | suppression of expression of TS protein ([2]; 1 nM): ~80% | Free TS (%) ([2]; ssiRNA 1 nM, normalized to free TS protein in mock-transfected cells (LF2000) set to 100%, mean ± S.D., 6 experiments): 22.6 ± 7.5% | biomarkers of DNA damage, γH2AX and p-ATM [3]: little to no effect | IC50 (GC3/TK− cells): 51.4 ± 27.8 nM
